For test [1], the target named is T1, recombinant Mcl-1 (residues 172-327) (Homo sapiens, UniProt Q07820).
T1 construct: 14 nM recombinant Mcl-1 (residues 172-327) were added to assay buffer
The test can be described thus: Bak peptide binding assay: fluorescence polarization anisotropy competition (FITC-Bak BH3 peptide). Conditions: 10 nM FITC-Bak, 14 nM Mcl-1, Ki converted from IC50. As to the method: (§1) Bak Peptide Binding Assay
(§2) Compound affinity was measured using a fluorescence polarization anisotropy competition assay. Anisotropy measurements were carried out in 384-well, black, flat-bottom plates (Greiner Bio-one, Monroe, N.C., USA). The assay was run using a fluorescein isothiocyanate-labeled BH3 peptide derived from Bak (FITC-AHx-[…] […] H2) (SEQ ID NO: 1) that was purchased from GenScript (Piscataway, N.J.) at >95% purity and used without further purification. 10 nM FITC-Bak peptide and 14 nM recombinant Mcl-1 (residues 172-327) were added to assay buffer (3 mM dithiothreitol, 50 mM NaCl, 20 mM Tris, pH 7.5). For selectivity assays, 40 nM Bcl-2 (residues 1-207^A96T,G110R, Δ35-91, replaced with Bcl-xL35-50) or 4 nM Bcl-xL (residues 1-209, loop 45-86 deleted) were incubated with 10 nM FITC-Bak in assay buffer.
(§3) Compounds are diluted in DMSO in a 10-point, 3-fold serial dilution scheme. 2.5 uL compound is added to 47.5 uL of assay buffer containing FITC-Bak and protein, for a final DMSO concentration of 5% and a top concentration of 20 uM. […] The plate was mixed and incubated for 90 minutes at room temperature. Anisotropy is measured at excitation wavelength 480 nm and emission wavelength 535 nm using an EnVision Multi-label plate reader (PerkinElmer, Wellesley, Mass., USA). Fluorescence anisotropy is plotted against compound concentration to generate an IC50 (inhibitor concentration at which 50% of bound peptide is displaced) by fitting the data to a 4-parameter logistic model using XLFit software (Guildford, Surrey, UK). IC50 is converted to a binding dissociation constant (Ki value) according to the formula of Wang Z. FEBS Lett (1996) 3, 245: Ki=[I]50/([L]50/Kd+[P]0/Kd+1) where [I]50 is the concentration of the free inhibitor at 50% inhibition, [L]50 is the concentration of the free labeled ligand at 50% inhibition, [P]0 is the concentration of the free protein at 0% inhibition, Kd represents the dissociation constant of the FITC peptide probe.

The target of test [2] is T2, Bcl-xL (residues 1-209, loop 45-86 deleted) (Homo sapiens, UniProt Q07817, DEL45-86).
T2 construct: Bcl-xL (residues 1-209, loop 45-86 deleted)
The test can be described thus: biochemical. It counts as binding. Conditions: Table 3; 10 nM FITC-Bak, 4 nM Bcl-xL; top concentration 20 uM. How it is done:
as §1, §2, §3

Where [3] appears, read: Ki For Inhibition of Mcl-I Protein, Table 2, binned range.

SMILES strings stand for the structures. pKi: −log10 of the molar value. Like-named read-outs stand apart in the source and are kept apart here.

T2 sequence (Q07817 other isoform, or with tags, fused parts or gaps DEL45-86): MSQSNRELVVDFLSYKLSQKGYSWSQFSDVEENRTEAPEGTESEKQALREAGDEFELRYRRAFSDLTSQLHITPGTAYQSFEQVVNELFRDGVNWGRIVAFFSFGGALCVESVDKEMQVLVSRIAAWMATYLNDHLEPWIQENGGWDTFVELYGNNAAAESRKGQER
T1 sequence (Q07820 172-327): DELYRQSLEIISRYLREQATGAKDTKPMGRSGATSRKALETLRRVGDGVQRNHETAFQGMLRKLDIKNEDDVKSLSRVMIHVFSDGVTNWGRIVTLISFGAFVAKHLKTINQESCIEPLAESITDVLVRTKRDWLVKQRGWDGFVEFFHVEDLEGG

In general, pKi refers to the negative decadic logarithm of the Ki, by convention in mol/L. With `O=C(O)c1c(CCOc2cccc3ccccc23)c2cccc3c2n1CCS3` [Example 1, 6-(2-(naphthalen-1-yloxy)ethyl)-2,3-dihydro-[1,4]thiazino[2,3,4-hi]indole-5-carboxylic acid], in test [1] (setting [3]), the negative logarithm of the Ki (pKi) was 5.00 to 6.00. On the same count and under the same terms, the result for `CS(=O)(=O)NC(=O)c1c(CCOc2cccc3ccccc23)c2cccc3c2n1CCS3` [Example 2, N-(methylsulfonyl)-6-(2-(naphthalen-1-yloxy)ethyl)-2,3-dihydro-[1,4]thiazino[2,3,4-hi]indole-5-carboxamide] reads 5.00 to 6.00; that for `Cc1cc(OCCc2c(C(=O)O)n3c4c(cccc24)SCC3)cc(C)c1Cl` [Example 3, 6-(2-(4-chloro-3,5-dimethylphenoxy)ethyl)-2,3-dihydro-[1,4]thiazino[2,3,4-hi]indole-5-carboxylic acid], 5.00 to 6.00; that for `O=C(O)c1c(CCOc2cccc3ccccc23)c2cccc3c2n1CCC3` [Example 4, 1-(2-(naphthalen-1-yloxy)ethyl)-5,6-dihydro-4H-pyrrolo[3,2,1-ij]quinoline-2-carboxylic acid], 5.00 to 6.00. On the same count and under the same terms, the value for `O=C(O)c1c(CCOc2cccc3ccccc23)c2cccc3c2n1CCO3` [Example 5, 6-(2-(naphthalen-1-yloxy)ethyl)-2,3-dihydro-[1,4]oxazino[2,3,4-hi]indole-5-carboxylic acid] was 5.00 to 6.00. For `O=C(NS(=O)(=O)c1ccccc1)c1c(CCOc2cccc3ccccc23)c2cccc3c2n1CCO3` [Example 6, 6-(2-(naphthalen-1-yloxy)ethyl)-N-(phenylsulfonyl)-2,3-dihydro-[1,4]oxazino[2,3,4-hi]indole-5-carboxamide], in test [1] (setting [3]), the pKi is 6.00 to 6.30. For the molecule `O=C(O)c1c(CCCOc2cccc3ccccc23)c2cccc3c2n1CCS3` [Example 7, 6-(3-(naphthalen-1-yloxy)propyl)-2,3-dihydro-[1,4]thiazino[2,3,4-hi]indole-5-carboxylic acid], the pKi in test [1] (setting [3]) is 6.52 to 7.00; in test [1] (Ki Mcl-1, Table 3), 6.97; in test [2], less than 4.70. As to `CS(=O)(=O)NC(=O)c1c(CCCOc2cccc3ccccc23)c2cccc3c2n1CCS3` [Example 8, N-(methylsulfonyl)-6-(3-(naphthalen-1-yloxy)propyl)-2,3-dihydro-[1,4]thiazino[2,3,4-hi]indole-5-carboxamide], in test [1] (setting [3]), the pKi was 5.00 to 6.00. Same read-out and setting: the result for `O=C(O)c1c(CCCOc2cccc3c2CCCC3)c2cccc3c2n1CCS3` [Example 9, 6-(3-((5,6,7,8-tetrahydronaphthalen-1-yl)oxy)propyl)-2,3-dihydro-[1,4]thiazino[2,3,4-hi]indole-5-carboxylic acid] reads 6.52 to 7.00. In the case of `O=C(O)c1c(CCCOc2ccc(Cl)c3ccccc23)c2cccc3c2n1CCS3` [Example 10, 6-(3-((4-chloronaphthalen-1-yl)oxy)propyl)-2,3-dihydro-[1,4]thiazino[2,3,4-hi]indole-5-carboxylic acid], the pKi was 6.52 to 7.00 in test [1] (setting [3]); 6.70 in test [1] (Table 3, read-out: Ki Mcl-1); 5.33 in test [2]. As to `O=C(O)c1c(CCCOc2ccc3c(c2)CCCC3)c2cccc3c2n1CCS3` [Example 11, 6-(3-((5,6,7,8-tetrahydronaphthalen-2-yl)oxy)propyl)-2,3-dihydro-[1,4]thiazino[2,3,4-hi]indole-5-carboxylic acid], in test [1] (setting [3]), the pKi is 6.30 to 6.52. The same measure, in the same setting: the value for `Cc1cc(OCCCc2c(C(=O)O)n3c4c(cccc24)SCC3)ccc1Cl` [Example 12, 6-(3-(4-chloro-3-methylphenoxy)propyl)-2,3-dihydro-[1,4]thiazino[2,3,4-hi]indole-5-carboxylic acid] was 6.52 to 7.00.

`Cc1cc(OCCCc2c(C(=O)O)n3c4c(cccc24)SCC3)cc(C)c1Cl` [Example 13, 6-(3-(4-chloro-3,5-dimethylphenoxy)propyl)-2,3-dihydro-[1,4]thiazino[2,3,4-hi]indole-5-carboxylic acid]: the pKi in test [1] (setting [3]) was no less than 7.00; in test [1] (Table 3, read-out: Ki Mcl-1), 7.15; in test [2], less than 4.70. On to `O=C(O)c1c(CCCOc2cccc3ccccc23)c2cccc3c2n1CCC3` [Example 14, 1-(3-(naphthalen-1-yloxy)propyl)-5,6-dihydro-4H-pyrrolo[3,2,1-ij]quinoline-2-carboxylic acid], for which the pKi in test [1] (setting [3]) was 6.30 to 6.52. In the case of `CS(=O)(=O)NC(=O)c1c(CCCOc2cccc3ccccc23)c2cccc3c2n1CCC3` [Example 15, N-(methylsulfonyl)-1-(3-(naphthalen-1-yloxy)propyl)-5,6-dihydro-4H-pyrrolo[3,2,1-ij]quinoline-2-carboxamide], the pKi in test [1] (setting [3]) was 5.00 to 6.00. Consider `Cc1cc(OCCCc2c(C(=O)O)n3c4c(cccc24)CCC3)cc(C)c1Cl` [Example 16, 1-(3-(4-chloro-3,5-dimethylphenoxy)propyl)-5,6-dihydro-4H-pyrrolo[3,2,1-ij]quinoline-2-carboxylic acid], for which, in test [1] (setting [3]), the pKi was 6.52 to 7.00.

Regarding `Cc1cc(OCCCc2c(C(=O)NS(=O)(=O)c3ccccc3)n3c4c(cccc24)CCC3)cc(C)c1Cl` [Example 17, 1-(3-(4-chloro-3,5-dimethylphenoxy)propyl)-N-(phenylsulfonyl)-5,6-dihydro-4H-pyrrolo[3,2,1-ij]quinoline-2-carboxamide], the pKi in test [1] (setting [3]) is 6.30 to 6.52. As for `O=C(O)c1c(CCCOc2cccc3ccccc23)c2cccc3c2n1CCCS3` [Example 18, 7-(3-(naphthalen-1-yloxy)propyl)-3,4-dihydro-2H-[1,4]thiazepino[2,3,4-hi]indole-6-carboxylic acid], the pKi in test [1] (setting [3]) was 6.52 to 7.00. On the same count and under the same terms, the value for `CS(=O)(=O)NC(=O)c1c(CCCOc2cccc3ccccc23)c2cccc3c2n1CCCS3` [Example 19, N-(methylsulfonyl)-7-(3-(naphthalen-1-yloxy)propyl)-3,4-dihydro-2H-[1,4]thiazepino[2,3,4-hi]indole-6-carboxamide] was 6.00 to 6.30. `O=C(O)c1c(CCCOc2cccc3ccccc23)c2cccc3c2n1CCCS3(=O)=O` [Example 21, 7-(3-(naphthalen-1-yloxy)propyl)-3,4-dihydro-2H-[1,4]thiazepino[2,3,4-hi]indole-6-carboxylic acid 1,1-dioxide]: the pKi in test [1] (setting [3]) is no less than 7.00. Take `O=C(O)c1c(CCCOc2cccc3ccccc23)c2cccc3c2n1CCS3(=O)=O` [Example 22, 6-(3-(naphthalen-1-yloxy)propyl)-2,3-dihydro-[1,4]thiazino[2,3,4-hi]indole-5-carboxylic acid 1,1-dioxide]: the pKi in test [1] (setting [3]) was no less than 7.00. Same read-out and setting: the value for `Cc1cc(OCCCc2c(C(=O)NS(=O)(=O)c3ccccc3)n3c4c(cccc24)SCCC3)cc(C)c1Cl` [Example 24, 7-(3-(4-chloro-3,5-dimethylphenoxy)propyl)-N-(phenylsulfonyl)-3,4-dihydro-2H-[1,4]thiazepino[2,3,4-hi]indole-6-carboxamide] was 6.52 to 7.00.

Turning to `O=C(O)c1c(CCCOc2cccc3ccccc23)c2cccc3c2n1CCO3` [Example 25, 6-(3-(naphthalen-1-yloxy)propyl)-2,3-dihydro-[1,4]oxazino[2,3,4-hi]indole-5-carboxylic acid], the pKi in test [1] (setting [3]) was 6.52 to 7.00. The same measure, in the same setting: the value for `Cc1cc(OCCCc2c(C(=O)O)n3c4c(cccc24)OCC3)cc(C)c1Cl` [Example 26, 6-(3-(4-chloro-3,5-dimethylphenoxy)propyl)-2,3-dihydro-[1,4]oxazino[2,3,4-hi]indole-5-carboxylic acid] was no less than 7.00; that for `Cc1cc(OCCCc2c(C(=O)O)n3c4c(c(Cl)ccc24)CCC3)cc(C)c1Cl` [Example 28, 7-chloro-1-(3-(4-chloro-3,5-dimethylphenoxy)propyl)-5,6-dihydro-4H-pyrrolo[3,2,1-ij]quinoline-2-carboxylic acid] was no less than 7.00.

These data come from patent publication US9949965B2, “Tricyclic indole Mcl-1 inhibitors and uses thereof” (priority 2014, dated 2018).
